Patent publication US7579006B2, “Method of treating immune pathologies with low dose estrogen” (Oregon Health and Science University, priority 2000, dated 2009)

Tests used:
IFN-γ KO mice = assay: EAE induced with MOG 35-55 in IFN-γ KO mice (clinical, histopathology); type: in vivo; details: 2.5 mg pellet
Description: Estrogen treatment. Sixty-day release pellets containing 2.5 mg of 17β-estradiol (E2) or vehicle were implanted subcutaneously (s.c) in the scapular region behind the neck using a 12-gauge trochar as described by the manufacturer (Innovative Research of America, Sarasota, Fla.). The mice were implanted one week prior to immunization with MOG 35-55. The concentration of E2 expected in the serum is between 1,500-2,000 pg/ml, which is approximately 5 times less than the levels found during pregnancy.
Induction of EAE. C57BL/6 and cytokine deficient mice were inoculated s.c in the flanks with 0.2 ml of an emulsion containing 200 μg of MOG 35-55 in saline and an equal volume of complete Freund's Adjuvant (CFA) containing 400 μg of Mycobacterium tuberculosis H37RA (Difco Laboratories, Detroit, Mich.). Disease induction required i.v. administration of pertussis toxin on the day of immunization (25 ng/mouse) and 2 days later (67 ng/mouse). The mice were assessed daily for clinical signs of EAE according to the 7 point scale described in Example I.
Histopathology. Histopathologic assessment of spinal column section was performed essentially as described in Example I, except that sections were stained with either luxol fast blue-periodic acid schiff-hematoxylin or silver nitrate prior to analysis.
Statistical analysis. Significant differences in incidence and mortality between untreated and E2 treated mice were assessed by Chi-square analysis. Difference in onset was determined using the two-tailed Student t test. Differences in peak score and cumulative disease index (CDI) were assessed by the Mann-Whitney test. Statistical significance of the frequency of cytokine secreting cells was analyzed using Student's t test for comparisons of two means. Differences in the expression of chemokine and cytokine mRNA were also determined using the Student t test. Values of p<0.05 were considered significant.

[1] = tested on: draining lymph node (LN) cells; assay: MOG 35-55 stimulated proliferation of draining lymph node cells; type: in vivo; details: WT and cytokine deficient mice, 2.5 mg pellet
Description: Proliferation assay. Proliferation assays were performed on draining lymph node (DLN) and spleen (SP) cells essentially as described in Examples I and II, using MOG 35-55 as the test antigen. […] Proliferation of draining lymph node (LN) cells from either untreated or E2 treated mice was measured to determine if E2 could alter the ability of T lymphocytes to recognize and respond to the immunizing antigen. LN cells were isolated from three representative mice for each group and the cells pooled prior to stimulation with MOG 35-55 for 72 hr.

[2] = Serum 17β-estradiol measured by RIA in Tg mice; type: in vivo; details: 0.36 mg pellet
Description: Androgen and estrogen detection. Mice were bled by cardiac puncture and the blood was allowed to clot at 4° C. overnight. The samples were centrifuged, and the sera collected and stored at −80° C. until hormone analysis was performed. Serum levels of estrogen were determined by radioimmunoassay (RIA) after Sephadex LH-20 column chromatography, as described in Roselli et al., Endocrine 64:139 (1996). All samples were analyzed in a single assay.
17β-estradiol treatment. For 17β-estradiol hormone therapy, 3-mm pellets containing 0.36 mg of 17β-estradiol (Innovative Research of America, Sarasota, Fla.), expected to provide physiological equivalence of the estrus cycle (150-200 pg/ml in serum) over 60 days, were implanted s.c. on the animal's back 7 days before induction of EAE. […] The 17β-estradiol pellets provide continuous controlled release of a constant level of hormone over a period of 60 days. Serum concentrations of 17β-estradiol were evaluated in representative mice from each group. Sham treated mice had variable levels of 17β-estradiol that reflected both estrus and diestrus mice (ranging from about 20 to 200 pg/ml, on average about 50 pg/ml). […] E2-treated intact mice were also variable (about 200-400 pg/ml), reflecting the combination of native estrus/diestrus levels plus the exogenous estradiol from the pellet, whereas the E2-treated OVX mice were somewhat lower (about 150-200 pg/ml).

[3] = tested on: Vβ8.1/8.2 TCR+ spleen cells; assay: Intracellular cytokine staining of MOG 35-55 stimulated spleen cells; type: in vivo, mice
Description: Intracellular staining for cytokines. Single cell suspensions from spleen were prepared from immunized mice and cultured at 10×10^6 cells/ml in stimulation media containing 50 μg/ml of MOG 35-55. The cells were stimulated for 24 hrs, the last 5 hrs in the presence of Brefeldin A. The cells were then stained with anti-Vβ8.1/8.2 TCR FITC for 30 min at 4° C. prior to fixation and permeabilization with cytofix/cytoperm solution (Pharmingen, Inc.). The cells were then stained with anti-cytokine antibodies labeled with phycoerythrin (anti-mouse IFN-γ, TNF-α, IL-4, IL-10, and IL-12 from Pharmingen Inc.) for 30 min at 4° C. The cells were washed twice in perm/wash buffer (Pharmingen, Inc.) and once in FACS staining buffer (PBS, 1% BSA, 0.05% NaN3) prior to two-color FACS analysis on a FACScan instrument (Beckton-Dickenson, Inc., Sunnyvale, Calif.) using Cell Quest software (Beckton-Dickenson, Inc.). For each experiment the cells were stained with isotype control antibodies to establish background staining and to set the quadrants prior to calculating the percent positive cells.
In order to determine whether estrogen treatment promotes a shift towards Th2 immunity, the frequency of both pro- and anti-inflammatory cytokine producing cells in untreated and E2 treated mice was assessed, using the intracellular cytokine staining technique. Spleen cells were prepared from untreated and E2 treated mice at the peak of EAE (day 12-16 post-immunization) and stimulated with MOG 35-55 for 24 hr, the last […] in the presence of Brefeldin A. The cells were stained with FITC labeled anti-Vβ8.1/8.2 TCR antibodies prior to fixation and permeabilization, and then were stained with the indicated phycoerythrin labeled anti-cytokine antibodies. Vβ8.1/8.2 TCR bearing T cells were focused on because they are thought to comprise a major population of the MOG-35-55 specific T cell responses in H-2b mice.

C[C@]12CC[C@@H]3c4ccc(O)cc4CC[C@H]3[C@@H]1CC[C@@H]2O [17β-estradiol]
Inflammatory foci/section (IFN-γ KO mice; IFN-γKO, spinal cord): 0.0 ± 0.0 Foci/Section
CDI (IFN-γ KO mice; IFNγ KO): 19.3 ± 15.9
Incidence (IFN-γ KO mice; IFNγ KO): 8/10
Mortality (IFN-γ KO mice; IFNγ KO): 1/10
Onset (IFN-γ KO mice; IFNγ KO): 21.8 ± 2.7
Peak Score (IFN-γ KO mice; IFNγ KO): 4.5 ± 1.2
LN proliferation response to MOG 35-55 [1]: no effect
serum 17β-estradiol ([2]; OVX Tg mice): 100 to 200 pg/mL
serum 17β-estradiol ([2]; OVX Tg mice, listed as E2): 150 to 200 pg/mL
serum 17β-estradiol ([2]; intact Tg mice (pellet plus native hormone)): 150 to 400 pg/mL
serum 17β-estradiol ([2]; intact Tg mice (pellet plus native hormone), listed as E2): 200 to 400 pg/mL
frequency of TNF-α producing Vβ8.1/8.2 TCR+ cells ([3]; C57BL/6 mice, p=0.004): significantly diminished
frequency of TNF-α producing Vβ8.1/8.2 TCR+ cells ([3]; IFN-γ knockout mice): no further reduction
frequency of TNF-α producing Vβ8.1/8.2 TCR+ cells ([3]; IL-4 knockout mice, p=0.06): significantly diminished
frequency of TNF-α producing Vβ8.1/8.2 TCR+ cells ([3]; IL-10 knockout mice, p=0.001): significantly diminished
frequency of IFN-γ producing cells ([3]; trend, p>0.05): lower frequency
